Six molecules from US9427479B2, “Tubulysin derivatives” (MedImmune LLC, priority 2014, dated 2016) can be followed below.

What all share (format): cell-based
For one test, the system named is DU145. Kind of test: In vitro proliferation assay (CellTiter-Glo), DU145. Particulars: Homo sapiens, DU-145; DU145 cells; cultured 72 to 144 hours; CellTiter-Glo cell viability. Here is the method: A panel of human cancer cell lines (DU 145, NCI-N87, and MDA-MB-361) obtained from the American Type Tissue Collection (ATCC) (P.O. Box 1549, Manassa, Va. 20108 (USA)) were used to determine the relative cytotoxicity of tubulysin compounds of the invention. The cells were plated in culture media at a density of 2,000 to 5,000 per well of tissue-culture-treated 96-well plates in a volume of 80 μl and allowed to adhere overnight. A 5× concentration of each compound tested was prepared by diluting the test articles in culture medium. Twenty microliters of each test article was added to cells in duplicate or triplicate such that the final dose curve ranged from 4 μg/ml down to 61 pg/ml in a stepwise 1:4 serial dilution series. The treated cells were cultured at 37° C./5% CO2 for 72 to 144 hours. The CellTiter-Glo Luminescent Viability Assay from Promega was used to determine relative cytotoxicity. Briefly, 100 μl of CellTiter-Glo reagent was added to each well, allowed to incubate for 10 minutes at room temperature with mild shaking and then the […] was read using a Perkin Elmer EnVision luminometer. The percent cell viability was calculated by the following formula: (average luminescence of treated samples/average luminescence of control (untreated) samples)×100. IC50 values were determined using logistic non-linear regression analysis with GraphPad Prism software. Not all compounds were assayed against all cell lines.
Background: Cellular ATP, detected with luciferase, serves as a proxy for viable cell number.

A further test concerns HCT116. Kind of test: In vitro proliferation assay (CellTiter-Glo), HCT116. Particulars: Homo sapiens, HCT-116; HCT116 cells; cultured 72 to 144 hours; CellTiter-Glo cell viability.
Another test deals with MB231. In words: In vitro proliferation assay (CellTiter-Glo), MB231. Particulars: Homo sapiens; MB231 cells; cultured 72 to 144 hours; CellTiter-Glo cell viability.

In general, IC50 refers to the midpoint of a concentration-inhibition curve. Molecule `CC[C@H](C)[C@H](NC(=O)C1(CC)CCCCN1C)C(=O)N(CC)[C@H](C[C@@H](OC(C)=O)c1nc(C(=O)N[C@@H](Cc2ccc(N)cc2)C[C@H](C)C(=O)O)cs1)C(C)C` (stereo partly drawn) [Compound 2, (2S,4R)-4-(2-((1R,3R)-1-acetoxy-3-((2S,3S)—N-ethyl-2-(2-ethyl-1-methylpiperidine-2-carboxamido)-3-methylpentanamido)-4-methylpentyl)thiazole-4-carboxamido)-5-(4-aminophenyl)-2-methylpentanoic acid] came in with a half-inhibitory concentration (IC50) in the test on DU145 of 0.5 nM.
For the molecule `CC[C@H](C)[C@H](NC(=O)[C@H]1CC(C)(C)CCN1C)C(=O)N(C)[C@H](C[C@@H](OC(C)=O)c1nc(C(=O)N[C@@H](Cc2ccccc2)C[C@H](C)C(=O)O)cs1)C(C)C` [Compound 4, (2S,4R)-4-(2-((1R,3R)-1-acetoxy-3-((2S,3S)—N,3-dimethyl-2-((R)-1,4,4-trimethylpiperidine-2-carboxamido)pentanamido)-4-methylpentyl)thiazole-4-carboxamido)-2-methyl-5-phenylpentanoic acid], the half-inhibitory concentration (IC50) in the test on HCT116 was 1.8 nM; in the test on DU145, 1.3 nM; with MB231, 3.9 nM.
Regarding `CC[C@H](C)[C@H](NC(=O)[C@H]1C[C@H](C)CCN1C)C(=O)N(C)[C@H](C[C@@H](OC(C)=O)c1nc(C(=O)N[C@@H](Cc2ccccc2)C[C@H](C)C(=O)O)cs1)C(C)C` [Compound 5, (2S,4R)-4-(2-((1R,3R)-1-acetoxy-3-((2S,3S)-2-((2R,4R)-1,4-dimethylpiperidine-2-carboxamido)-N,3-dimethylpentanamido)-4-methylpentyl)thiazole-4-carboxamido)-2-methyl-5-phenylpentanoic acid], the IC50 came out at 0.5 nM in the test with HCT116, 0.9 nM with DU145 and 3.4 nM with MB231.
The corresponding values for `CC[C@H](C)[C@H](NC(=O)[C@H]1C[C@H](C)CCN1C)C(=O)N(C)[C@H](C[C@@H](OC(C)=O)c1nc(C(=O)N[C@@H](Cc2ccc(N)cc2)C[C@H](C)C(=O)O)cs1)C(C)C` [Compound 6, (2S,4R)-4-(2-((1R,3R)-1-acetoxy-3-((2S,3S)-2-((2R,4R)-1,4-dimethylpiperidine-2-carboxamido)-N,3-dimethylpentanamido)-4-methylpentyl)thiazole-4-carboxamido)-5-(4-aminophenyl)-2-methylpentanoic acid] are 1.9 nM, 4 nM and 6.6 nM.
`CC[C@H](C)[C@H](NC(=O)[C@@]1(C)CCCCN1C)C(=O)N(CC)[C@H](C[C@@H](OC(C)=O)c1nc(C(=O)N[C@@H](Cc2ccc(N)cc2)C[C@H](C)C(=O)O)cs1)C(C)C` [Compound 3, (2S,4R)-4-(2-((1R,3R)-1-acetoxy-3-((2S,3S)-2-((R)-1,2-dimethylpiperidine-2-carboxamido)-N-ethyl-3-methylpentanamido)-4-methylpentyl)thiazole-4-carboxamido)-5-(4-aminophenyl)-2-methylpentanoic acid] displayed an IC50 in the test on DU145 of 0.2 nM.
On to `CC[C@H](C)[C@H](NC(=O)[C@H]1C[C@H](C)CCN1C)C(=O)N(CC)[C@H](C[C@@H](OC(C)=O)c1nc(C(=O)N[C@@H](Cc2ccc(N)cc2)C[C@H](C)C(=O)O)cs1)C(C)C` [Compound 1, (2S,4R)-4-(2-((1R,3R)-1-acetoxy-3-((2S,3S)-2-((2R,4R)-1,4-dimethylpiperidine-2-carboxamido)-N-ethyl-3-methylpentanamido)-4-methylpentyl)thiazole-4-carboxamido)-5-(4-aminophenyl)-2-methylpentanoic acid], for which the IC50 came to 0.6 nM in the test on HCT116, 0.2 nM in the test with DU145 and 2.5 nM with MB231.
